Experimental data reported in US20200345689A1, “METHODS AND CO[…] RRx-001 FOR RADIOPROTECTION” (EpicentRx, Inc., priority 2018, published 2020).

Legend:
SOD-1 = test: Western blot of SOD-1 in U937 macrophages; type: cell-based, human; conditions: 3 mM RRx-001 for 16 hours, sham and irradiated groups
Protocol: (§1) Expression of ARE proteins was assayed in hMSC, macrophages, and monocytes following in vitro irradiation of the cells, which were pretreated with RRx-001 or vehicle. Protein expression was assayed by Western blotting and protein quantification.
(§2) hMSC were treated for 16 hours with […] RRx-001 or the vehicle control (0.05% DMSO), irradiated at 10 Gy or sham-irradiated and the protein collected 8 or 24 hours post-sham or irradiation. Human monocytic leukemic THP-1 and U937 cells were differentiated into macrophages with 50 nM Phorbol 12-myristate 13-acetate (PMA) for 24 hours before treatment. Differentiated and non-differentiated cells were treated with […] RRx-001 or 0.05% DMSO (vehicle control) for 16 hours prior to radiation. The cells were irradiated at 5 Gy or sham-irradiated and collected 4-8 hours later for both analysis. For each experiment, duplicates of each sample were run.

HO-1 [1] = test: Western blot of HO-1 in THP-1 monocytes and macrophages; type: cell-based, human; conditions: THP-1 macrophages, 3 mM RRx-001 for 16 hours
Protocol: as §1, §2

NQO-1 = test: Western blot of NQO-1 in U937 macrophages; type: cell-based, human; conditions: 3 mM RRx-001 for 16 hours, sham and irradiated groups
Protocol: as §1, §2

HO-1 [2] = test: Western blot of HO-1 in U937 monocytes and macrophages; type: cell-based, human; conditions: 3 mM RRx-001 for 16 hours
Protocol: as §1, §2

CD2F1 male mice = test: Complete blood count with differential and reticulocytes after sublethal TBI or sham irradiation; type: in vivo
Protocol: To determine the pathophysiological effects of RRx-001 on hematopoietic protection in mice, CD2F1 male mice were treated with 10 mg/kg RRx-001 or the vehicle control 24 hours prior to a sublethal dose of TBI (7 Gy at 0.6 Gy/min using High-level Cobalt-60) or sham irradiation (day 0) according to the table below.
CD2F1 male mice (n=3/group) were divided into 4 experimental groups: 1) irradiation+vehicle, 2) irradiation+RRx-001, 3) sham-irradiation+vehicle and 4) sham-irradiation+RRx-001. Either 10 mg/kg RRx-001 or the vehicle control were IP injected 24 hours prior to either irradiation or sham-irradiation (day 0). On days 2, 7, 14, 21, and 28 post-irradiation (day 0) mice were humanely euthanized. Blood, bone marrow, and sternebrae were then collected. This experiment was performed in duplicate for a total of n=6 mice/group/time point.
Post-irradiation whole blood was obtained by terminal cardiocentesis. Blood samples were immediately transferred into EDTA tubes (Sarstedt Inc., Newton, N.C.) and gently rotated until the time of analysis. The tubes were analyzed for a complete blood count with differential and reticulocytes using the ADVIA 2120 (Siemens Medical Solutions Diagnostics, Dublin, Ireland), and Microsoft software version 5.9 (Microsoft Corp., Redmond, Wash.) to generate the data.
Blood parameters were compared between treatment groups using an analysis of variance (ANOVA). The Wilcoxon test was also used for sensitivity and to potentially address data departures from normality. A longitudinal mixed model repeated measures was also implemented to provide a more complete data analysis of the sham-irradiated treatment groups' difference in overall time profile mean based on the blood parameters. Bone marrow data (megakaryocytes and grade) statistical analysis was carried out using a parametric test consisting of a general linear model analysis of variance (ANOVA with factors consisting of treatment group and pathologist) and the Kruskal-Wallis nonparametric test. The statistical data analysis was carried out using R software (Version 3.4.3, 2016) and the graphs made using GraphPad Prism version 7.03 (GraphPad Software, La Jolla, Calif.).

heme oxygenase 1 (HO-1) = test: Western blot of ARE protein expression in hMSC: HO-1; type: cell-based, human; conditions: 5 mM RRx-001 for 16 hours
Protocol: Antioxidant response element (ARE) genes such as heme oxygenase 1 (HO-1), NAD(P)H Dehydrogenase [Quinone] 1 (NQO-1) and Superoxide Dismutase (SOD) are involved in the detoxification and elimination of reactive oxidants.
as §1, §2

[3] = test system: human monocytic leukemic THP-1 cells; test: Cytokine array of irradiated THP-1 monocytes and macrophages; type: cell-based
Protocol: A cytokine array was employed to examine cytokine expression following in vitro irradiation of human monocytic leukemic THP-1 cells. THP-1 cells were differentiated into macrophages with 50 nM Phorbol 12-myristate 13-acetate (PMA) for 24 hours before treatment. Differentiated and non-differentiated cells were treated with […] RRx-001 or 0.05% DMSO (vehicle control) for 16 hours prior to radiation. The cells were irradiated at 5 Gy or sham-irradiated and collected 4-8 hours later for both analysis. For the cytokine analysis, cell media was collected and blotted onto Proteome Profiler Human Cytokine Arrays (R&D Systems, Inc.) according to the manufacturer's protocol.

[4] = 7 Gy TBI, decrease below sham controls on days 7 and 14
[5] = days 2 and 21 post-irradiation (7 Gy TBI)

Q: How did the SOD-1 expression (SOD-1) turn out when `O=C(CBr)N1CC([N+](=O)[O-])([N+](=O)[O-])C1` [RRx-001, 2-bromo-1-(3,3-dinitroazetidin-1-yl)ethan-1-one] was run?
A: no change

Q: And the HO-1 expression (HO-1 [1])?
A: no significant increase in HO-1

Q: What about the NQO-1 expression (NQO-1) of the same compound?
A: no change

Q: What about the HO-1 production (HO-1 [2]; U937 macrophages, sham and irradiated groups) of the same compound?
A: increased HO-1 production

Q: And the HO-1 expression (HO-1 [2]; U937 monocyte fraction)?
A: significant increase in HO-1

Q: What about the “% HCT compared to the irradiated control” value (CD2F1 male mice; 7 Gy TBI, day 14) of the same compound?
A: significantly increased levels

Q: And the “ALC counts compared to the controls” value (CD2F1 male mice; 7 Gy TBI, day 14)?
A: significantly increased

Q: And the “WBC counts compared to the controls” value (CD2F1 male mice; 7 Gy TBI, day 14)?
A: significantly increased

Q: And the “% RETIC compared to control mice” value (CD2F1 male mice; 7 Gy TBI, day 14, returned to baseline levels)?
A: significantly increased

Q: And the “% RETIC compared to the vehicle controls” value (CD2F1 male mice; 7 Gy TBI, day 28)?
A: significantly increased

Q: What about the “ANC compared to the control” value (CD2F1 male mice; 7 Gy TBI, days 7 and 14) of the same compound?
A: significantly increased

Q: What about the “PLT compared to the control” value (CD2F1 male mice; 7 Gy TBI, days 7 and 14) of the same compound?
A: significantly increased

Q: What about the “hemoglobin, irradiated RRx-001 vs irradiated vehicle” value (CD2F1 male mice; [4]) of the same compound?
A: not significantly different

Q: What about the “red blood cells, irradiated RRx-001 vs irradiated vehicle” value (CD2F1 male mice; [4]) of the same compound?
A: not significantly different

Q: What about the “absolute lymphocyte count (ALC) vs vehicle control” value (CD2F1 male mice; [5]) of the same compound?
A: No significant difference

Q: What about the “absolute neutrophil count (ANC) vs vehicle control” value (CD2F1 male mice; [5]) of the same compound?
A: No significant difference

Q: What about the “percent hematocrit (% HCT) vs vehicle control” value (CD2F1 male mice; [5]) of the same compound?
A: No significant difference

Q: What about the “percent reticulocytes (% RETIC) vs vehicle control” value (CD2F1 male mice; [5]) of the same compound?
A: No significant difference

Q: And the “platelets (PLT) vs vehicle control” value (CD2F1 male mice; [5])?
A: No significant difference

Q: And the “white blood cells (WBC) vs vehicle control” value (CD2F1 male mice; [5])?
A: No significant difference

Q: What about the “platelets, overall mean over time (standard error)” value (CD2F1 male mice; sham-irradiated, 10 mg/kg IP, longitudinal mixed model repeated measures) of the same compound?
A: 1067.73 (32.26)

Q: And the “difference in the overall mean of platelets over time vs vehicle” value (CD2F1 male mice; sham-irradiated, least-square means, p=0.01)?
A: statistically significant difference in the least-square means in favor of RRx-001-treatment

Q: And the “increase in HO-1 expression” value (heme oxygenase 1 (HO-1); 24 hours post-sham or irradiation)?
A: 2-3.5 fold

Q: And the “increase in HO-1 expression” value (heme oxygenase 1 (HO-1); sham and 10 Gy irradiated groups, 8 hours post-sham or irradiation)?
A: 22-26 fold

Q: What about the “cytokine expression (cytokine array)” value ([3]; THP-1 macrophage fraction, 3 mM RRx-001 for 16 hours, sham and 5 Gy irradiated) of the same compound?
A: reduction in cytokines involved in inflammation

Q: And the “CCL5/RANTES expression (cytokine array)” value ([3]; THP-1 monocytes, 3 mM RRx-001 for 16 hours)?
A: induction

Q: What about the “pro-inflammatory chemokine IL-8” value ([3]; macrophages) of the same compound?
A: reduction
